Data reported in patent publication US10744109B2, “Sustained release suspension containing dezocine analogue ester and preparation method therefor” (SHANDONG DANHONG PHARMACEUTICAL CO., LTD., priority 2017, dated 2020).
Where two headings read alike, the source gives them in different places.

What was measured:
[1] = Study of pharmacokinetics, intramuscular injection in male rats; format: in vivo; details: whole blood, im, rat; for AUC: read-out: AUC0=last
Method: Study of Pharmacokinetics
3 Male rats for each group, the compound as shown in formula (I) was administered by intramuscular injection. Whole blood samples were collected at 0.25, 0.50, 1.0, 2.0, 4.0, 8.0, 12.0, 24.0 and 48.0 hour(s) after administration of the aqueous suspension group. Whole blood samples were collected at 0.25, 0.50, 2.0, 4.0, 8.0, 10.0, 24.0, 48.0, 72.0, 96.0, 120.0 and 144.0 hour(s) after administration of the oil suspension group. After precipitating the protein with acetonitrile/methanol, the supernatant was collected for sampling and the blood concentration of the compound was determined by LC-MS/MS. The non-compartment model linear logarithmic trapezoid method was used to calculate the pharmacokinetic parameters of the compounds as shown in formula (I) and formula (II) respectively by using WinNonlin™ Version 6.3 (Pharsight, Mountain View, Calif.) pharmacokinetic software.

[2] = in vivo, prepared as an aqueous solution; cited from earlier work
[3] = releases formula (II) after hydrolysis in vivo; cited from earlier work
[4] = cited from earlier work
[5] = intramuscular injection of aqueous suspension of formula (I), 17.5 μM/Kg
[6] = intramuscular injection of oil suspension of formula (I), 51.4 μM/Kg
[7] = intramuscular injection of oil suspension of formula (I), 51.4 μM/Kg, 44.50 mg/mL, 0.25% Tween 80, medium chain triglyceride

SMILES | AUC(0-inf) [1, 5] [µM·h] | Tmax [1, 5] [h] | half-life [1, 5] [h] | Cmax ([1]; intramuscular injection of aqueous suspension of formula (I), 17.5 μM/Kg, 25 μm/mL, 1% Tween 20, 7.5% PEG 1000, 0.75% citric acid monohydrate) [nM] | AUC [1, 5] [µM·h] | AUC(0-inf) [1, 6] [µM·h] | Tmax [1, 6] [h] | half-life [1, 6] [h] | Cmax [1, 7] [nM] | AUC [1, 6] [µM·h] | clearance rate [2] | half-life [2] | stability in plasma [3] | solubility in oil solution ([4]; oil solution) | solubility in water ([4]; water)
C[C@@]12CCCCC[C@@H](Cc3c(F)cc(O)cc31)[C@@H]2N [formula (II)] | 5.81 | 4 | 7.52 | 438 | 5.71 | 10.4 | 2 | 24.1 | 378 | 10.1 |  |  |  |  | 
C[C@@]12CCCCC[C@@H](Cc3c(F)cc(OC(=O)CCCCCCCCC(=O)Oc4cc(F)c5c(c4)[C@@]4(C)CCCCC[C@@H](C5)[C@@H]4N)cc31)[C@@H]2N [formula (I)] |  |  |  |  |  |  | 0.25 |  | 5.05 | 0.11 | too fast | short | unstable | hardly soluble or insoluble | slightly soluble
